Ends that are not written are not given here. * marks the point of attachment. Biotin = O=C1N[C@H]2[C@H](CS[C@H]2CCCCC(=O)*)N1
Key:
Type in all cases: binding, human
[1] = system: antibodies to HTLV-I and HTLV-II (serum panel PRP203); experiment: Line immunoassay (LIA) with biotinylated HTLV-I and HTLV-II peptides; conditions: sample nr. 12 of panel PRP203
Text: A number of these peptides were used to prepare LIA strips for the detection of antibodies of HTLV. Several of the peptides, such as I-p19 and I-gp46-4, which are derived from regions of the HTLV-I p19 gag protein and envelope glycoprotein, respectively, are expected to be recognized by antibodies produced as a result of both HTLV-I and HTLV-II infection since these sequences are highly homologous in the two viruses. Others, such as I-gp46-3, I-gp46-6 for HTLV-I, and II-gp52-1, II-gp52-2 and II-gp52-3 for HTLV-II may be useful for detection of antibodies as well as discrimination. Since there is some homology between the HTLV-I and HTLV-II sequences, cross-reactions are to be expected. Nevertheless, the intensities of the reactions to the various peptides should reveal the identity of the virus to which the antibodies were produced.
The LIA strips were evaluated using a commercially available serum panel (Boston Biomedia Inc., mixed titer panel, PRP203). The test results are in complete agreement with the analysis provided by distributor. […] This sample could not be differentiated using these peptides, nor could this sample be differentiated by any other test used by the distributor of the serum panel. Sample nr. […] In an additional experiment, an ELISA was performed using all 10 of the biotinylated HTLV-I and HTLV-II peptides. […]

[2] = system: antibodies in antisera from HIV-1 infected persons; experiment: ELISA with HIV-1 antibody-positive sera (biotinylated peptides on streptavidin- or avidin-coated plates, unbiotinylated peptides coated directly)
Description: (§1) Where peptides were to be coated directly, stock solutions of the peptides were diluted in sodium carbonate buffer, pH 9.6 and used to coat polystyrene microtiter plates at a peptide concentration of 2 to 5 micrograms per milliliter for 1 hour at 37° C.
(§2) In cases where biotinylated peptides were to be evaluated, plates were first coated with streptavidin in sodium carbonate buffer, pH 9.6 at a concentration of 3 micrograms per milliliter for 1 hour at 37° C. The plates were then washed to remove excess, unbound protein. A working solution of the biotinylated peptide at 1 microgram per milliliter in sodium carbonate buffer was then added to the wells of the microtiter plate and incubated for 1 hours at 37° C.
(§3) Once the plates had been coated with antigen, any remaining free binding sites on the plastic were blocked with casein. After washing, a dilution of the appropriate antisera, usually 1:100, was added to the wells of the plates and incubated for 1 hour at 37° C.
(§4) After washing to remove unbound material, specific antibody binding was detected by incubating the plates with goat anti-human immunoglobulin antibodies conjugated to the enzyme horseradish peroxidase. Following removal of unbound conjugate by washing, a solution containing H2O2 and 3,3′,5,5′-tetramethylbenzidine was added.
(§5) Reactions were stopped after a suitable interval by addition of sulfuric acid. […] Absorbance measurements were made at a wavelength of 450 nanometers and all data are expressed as an optical density value at this wavelength.
Experiments were performed to evaluate antibody recognition of short, 10 amino acid-long, N-acetylated peptides corresponding to other contained within the transmembrane proteins of HIV-1 and HIV-2. […] The peptides used for the comparison were as follows:
Antibody binding to these peptides was compared to antibody binding to the unibiotinylated peptides which were coated directly onto microtiter plates.
In order to evaluate antibody recognition of these two peptides, the peptides were bound individually to streptavidin-coated microtiter plates and tested using a panel of antisera from HIV-1 seropositive donors.
(§6) To determine how well biotinylated peptides would function in a mixture when bound to streptavidin- or avidin-coated plates, two mixtures were made of the N-terminally biotinylated versions of the HIV-1 peptides TM-HIV-1 (hereabove referred to as 1a.1) and V3-nm (hereabove referred to as 1b.4), the HIV-2 peptide TM-HIV-2 (hereabove referred to as 2a), and the hepatitis C virus peptides II, IX, and XVIII. Mixture A contained each of the six biotinylated peptides at a concentration of 1 microgram per milliliter (6 micrograms per milliliter peptide, total) while in mixture B, each peptide was present at a concentration of 0.1 microgram per milliliter (0.6 microgram per milliliter peptide, total). The individual peptides were coated at a concentration of 1 microgram per milliliter. For purposes of comparison, mixtures A and B were also coated directly onto the wells of a microtiter plate. Samples from HIV-1, HIV-2, and HCV-seropositive donors were tested and compared to sera from seronegative blood donors. A cut-off absorbance value of 0.250 was used to determine whether a reaction was positive or negative. Absorbance values equal or greater than 0.250 were considered positive while absorbance values below this value were considered negative.
A spacer consisting of two glycine residues was added to the amino terminus.

[3] = system: antibodies in antisera from HIV-2 infected persons; experiment: ELISA with HIV-2 antibody-positive sera (biotinylated peptides on streptavidin- or avidin-coated plates, unbiotinylated peptides coated directly)
Description: as §1, §2, §3, §4, §5
The biotinylated peptides were loaded onto microtiter plates which had been coated with streptavidin. Antibody binding to these peptides was compared to antibody binding to the unibiotinylated peptides which were coated directly onto microtiter plates. It is evident that the biotinylated peptides from the HIV-1 or HIV-2 transmembrane proteins bound to streptavidin are recognized very well by antisera from HIV-1 or HIV-2 infected persons respectively. This is in contrast to the unbiotinylated versions of these peptides coated directly onto the polystyrene plates.
as §6
Two glycine residues were added at the N-terminus of each peptide to serve as a spacer and a biotin was coupled to the α-amino group of the resulting N-terminal glycine. The peptides were bound to streptavidin and coated in the wells of microwell plates. HIV-2 antibody-positive sera were used to evaluate these two peptides in an ELISA.

[4] = system: antibodies in sera from HCV-seropositive donors; experiment: ELISA with HCV antibody-positive sera (biotinylated peptides on streptavidin- or avidin-coated plates, unbiotinylated peptides coated directly); conditions: Table 8, Avidin
Outline: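 Peptides coated either directly at 2–5 or 3 μg/ml in carbonate buffer pH 9.6, or biotinylated at 1 μg/ml on streptavidin-coated wells (3 μg/ml). Plates casein-blocked, then human sera (1:100 or 1:20) incubated 1 h at 37° C. Bound antibody detected with HRP anti-human Ig/TMB, read as OD450.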

[5] = ELISA with seronegative / negative control sera (specificity)
Outline: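 Specificity readout is OD at 450 nm (HRP goat anti-human Ig, TMB/H2O2, sulfuric acid stop), with ≥0.250 counted positive. Seronegative donor sera (typically 1:100, 1 h, 37° C) were applied to casein-blocked wells coated with peptide directly or via streptavidin capture of biotinylated peptide.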

[6] = Table 1, serum 0724, HIV-1 positive
[7] = Table 1, serum PL, HIV-1 positive
[8] = Table 1, serum VE, HIV-1 positive
[9] = Table 1, serum YEMO, HIV-1 positive
[10] = Table 1, serum mm, HIV-1 positive
[11] = Table 1, serum 53-3, HIV-2 positive
[12] = Table 1, serum 1400, HIV-2 positive
[13] = Table 1, serum AG, HIV-2 positive
[14] = Table 1, serum 180, seronegative donor
[15] = Table 1, serum 194, seronegative donor
[16] = Table 1, serum 195, seronegative donor
[17] = Table 1, serum 204, seronegative donor

Substance | optical density (450 nm) [2, 6] | optical density (450 nm) [2, 7] | optical density (450 nm) [2, 8] | optical density (450 nm) [2, 9] | optical density (450 nm) [2, 10] | optical density (450 nm) [3, 11] | optical density (450 nm) [3, 12] | optical density (450 nm) [3, 13] | optical density (450 nm) [5, 14] | optical density (450 nm) [5, 15] | optical density (450 nm) [5, 16] | optical density (450 nm) [5, 17] | further results
Bio Gly Gly Pro Pro Pro Pro Ser Ser Pro Thr His Asp Pro Pro Asp Ser Asp Pro Gln Ile Pro Pro Pro Tyr Val Glu Pro Thr Ala Pro Gln Val Leu (Biotin-GGPPPPSSPTHDPPDSDPQIPPPYVEPTAPQVL) [I-p19] | – | – | – | – | – | – | – | – | – | – | – | – | LIA reaction [1]: positive reaction
Bio-Gly-Gly-Gly-Ser-Trp-Gly-Cys-Ala-Phe-Arg-Gln-Val-Cys-NH2 (Biotin-GGGSWGCAFRQVC-NH2; cysteine pairing not given here) [TM-HIV-2 Bio] | 0.000 | 0.000 | 0.000 | 0.000 | 0.000 | 2.365 | 1.982 | 2.323 | 0.000 | 0.000 | 0.000 | 0.000 | optical density (450 nm) ([2]; Table 8, serum 3990 (HIV-1), Avidin): 0.054; optical density (450 nm) ([2]; Table 8, serum DV (HIV-1), Avidin): 0.048; optical density (450 nm) ([2]; Table 8, serum PL (HIV-1), Avidin): 0.051; optical density (450 nm) ([2]; Table 8, serum YS (HIV-1), Avidin): 0.046; optical density (450 nm) ([3]; Table 8, serum 1400 (HIV-2), Avidin): 1.781; optical density (450 nm) ([3]; Table 8, serum AG (HIV-2), Avidin): 2.065; optical density (450 nm) ([4]; serum 8243 (HCV)): 0.109; optical density (450 nm) ([4]; serum 8247 (HCV)): 0.048; optical density (450 nm) ([4]; serum 8248 (HCV)): 0.046; optical density (450 nm) ([4]; serum 8269 (HCV)): 0.049; optical density (450 nm) ([4]; serum 8273 (HCV)): 0.050; optical density (450 nm) ([4]; serum 8278 (HCV)): 0.045; optical density (450 nm) ([4]; serum 8285 (HCV)): 0.163; optical density (450 nm) ([4]; serum 8290 (HCV)): 0.047; optical density (450 nm) ([4]; serum 8291 (HCV)): 0.050; optical density (450 nm) ([5]; Table 8, serum 1782 (blood donor), Avidin): 0.057; optical density (450 nm) ([5]; Table 8, serum 1784 (blood donor), Avidin): 0.046; optical density (450 nm) ([5]; Table 8, serum 1785 (blood donor), Avidin): 0.047; optical density (450 nm) ([5]; Table 8, serum 1794 (blood donor), Avidin): 0.090
Ac-Ser-Trp-Gly-Cys-Ala-Phe-Arg-Gln-Val-Cys-NH2 (Ac-SWGCAFRQVC-NH2; cysteine pairing not given here) [TM-HIV-2, unbiotinylated N-acetylated decamer of the HIV-2 transmembrane protein] | 0.000 | 0.000 | 0.000 | 0.000 | 0.000 | 0.000 | 0.000 | 0.000 | 0.000 | 0.000 | 0.000 | 0.000 | –
